Assay results from patent US8785470B2, “Heterocyclic compounds and uses thereof” (Infinity Pharmaceuticals, Inc., priority 2011, dated 2014).
Like-named read-outs stand apart in the source and are kept apart here.

How the values were obtained:
PI3Kγ = target: T1, PI3Kγ (Homo sapiens, UniProt P48736); assay: PI3-Kinase HTRF assay, PI3Kγ; format: biochemical; conditions: 10 μM ATP, PIP2 at 10 μM
T1 construct: purchased Millipore Corporation 14-558-K
Excerpt: (§1) A PI3-Kinase HTRF® assay kit (cat No. 33-016) purchased from Millipore Corporation was used to screen compounds provided herein. This assay used specific, high affinity binding of the GRPI pleckstrin homology (PH) domain to PIP3, the product of a Class 1A or 1B PI3 Kinase acting on its physiological substrate PIP2. During the detection phase of the assay, a complex was generated between the GST-tagged PH domain and biotinylated short chain PIP3. The biotinylated PIP3 and the GST-tagged PH domain recruited fluorophores (Streptavidin-Allophycocyanin and Europium-labeled anti-GST respectively) to form the fluorescence resonance energy transfer (FRET) architecture, generating a stable time-resolved FRET signal. The FRET complex was disrupted in a competitive manner by non-biotinylated PIP3, a product formed in the PI3 Kinase assay.
(§2) PI3 Kinase α, β, γ and δ activity was assayed using the PI3 Kinase HTRF® assay kit (catalogue No. 33-016) purchased from Millipore Corporation. Purified recombinant PI3Kα (catalogue No. 14-602-K), PI3Kβ (catalogue No. 14-603-K), PI3Kγ (catalogue No. 14-558-K) and PI3Kδ (catalogue No. 14-604-K) were obtained from Millipore Corporation. Purified recombinant PI3K enzyme was used to catalyze the phosphorylation of phosphatidylinositol 4,5-bisphosphate (PIP2 at 10 μM) to phosphatidylinositol 3,4,5-trisphosphate (PIP3) in the presence of 10 μM ATP. The assay was carried out in 384-well format and detected using a Perkin Elmer EnVision Xcite Multilabel Reader. Emission ratios were converted into percent inhibitions and imported into GraphPad Prism software. The concentration necessary to achieve inhibition of enzyme activity by 50% (IC50) was calculated using concentrations ranging from 20 μM to 0.1 nM (12-point curve). IC50 values were determined using a nonlinear regression model available in GraphPad Prism 5. […]

PI3Kβ = target: T2, PI3Kβ (Homo sapiens, UniProt P42338); assay: PI3-Kinase HTRF assay, PI3Kβ; format: biochemical; conditions: bins Greater than 10 μM and Greater than 1 μM to 10 μM; 10 μM ATP, PIP2 at 10 μM
T2 construct: purchased Millipore Corporation 14-603-K
Procedure, shortened: (§3)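 Competitive time-resolved FRET readout of PIP3 formed from 10 μM PIP2 with 10 μM ATP, 1 h at room temperature, by each recombinant human isoform (α, β, γ, δ; 0.25-0.3 μg/ml). Compound (2% DMSO final) was preincubated 15 min with enzyme and substrate; IC50 fitted over 20 μM–0.1 nM, 12 points.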

PI3Kδ = target: T3, PI3Kδ (Homo sapiens, UniProt O00329); assay: PI3-Kinase HTRF assay, PI3Kδ; format: biochemical; conditions: 10 μM ATP, PIP2 at 10 μM
T3 construct: purchased Millipore Corporation 14-604-K
Excerpt: as §1, §2

Balb/c splenic B cells = assay: B cell activation and proliferation assay; format: cell-based; conditions: Mus musculus, read-out: B cell proliferation EC50
Procedure, shortened: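 Read-out is metabolic activity by Alamar Blue reduction (5 h, 560Ex/590Em) after 72 h at 37° C, reported as IC50 or EC50. Compound (0.2% DMSO) was added 30 min before a cocktail holding 10 μg/ml LPS or 5 μg/ml F(ab′)2 anti-IgM with 2 ng/ml mouse IL4. Cells were purified Balb/c splenic B cells, 50.000 per well.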

PI3Kα = target: T4, PI3Kα (Homo sapiens, UniProt P42336); assay: PI3-Kinase HTRF assay, PI3Kα; format: biochemical; conditions: 10 μM ATP, PIP2 at 10 μM, read-out: IC50 P13Kα
T4 construct: purchased Millipore Corporation 14-602-K
Procedure, shortened: as §3

[1] = test system: phospho-AKT in RAW 264.7 cells (PI3Kγ); assay: PI3Kγ selective assay, phospho-AKT in RAW 264.7 cells; format: cell-based; conditions: Mus musculus, RAW264.7, stimulated with C5a, read-out: IC50 for phospho-AKT, RAW 264.7 cell model
Excerpt: A compound's ability in selectively inhibiting PI3Kγ can be assessed using RAW264.7 macrophages. Briefly, serum-starved PAW264.7 cells are stimulated with a known GPCR agonist C5a. (See, e.g., Camps et al., Nature Medicine (2005) 11(9): 936-943). Cells can be treated with test compounds prior to, simultaneously with, or subsequent to the stimulation by C5a. RAW 264.7 cells respond to the complement component fragment C5a through activation of the C5a receptor, and the C5a receptor activates macrophages and induces cell migration. Test compounds' ability to inhibit C5a-mediated AKT phosphorylation is indicative of selective inhibition of PI3Kγ. Thus, by monitoring the reduction of phospho-AKT in stimulated RAW 264.7 cells (using for example, phospho-AKT antibodies), a compound's potential efficacy in selectively inhibiting PI3Kγ can be assessed.

[2] = test system: phospho-AKT in RAJI cells (PI3Kδ); assay: PI3Kδ selective assay, phospho-AKT in RAJI cells; format: cell-based; conditions: RAJI cells stimulated with anti-human IgM; read-out: IC50 for phospho-AKT, RAJI cell model
Excerpt: A compound's ability in selectively inhibiting PI3Kδ can be assessed using RAJI cells, i.e., B lymphocyte cells derived from lymphoma patients. Briefly, serum-starved RAJI cells are stimulated with anti-human IgM, thereby causing signaling through the B-cell receptors, as described in, for example, He et al., Leukemia Research (2009) 33: 798-802. B-cell receptor signaling is important for the activation, differentiation, and survival of B cells and certain B-cell derived cancers. Reduction of phospho-AKT is indicative of compounds that may inhibit B-cell proliferation and function in certain diseases. By monitoring the reduction of phospho-AKT in stimulated RAJI cells (using for example, phospho-AKT antibodies), a compound's potential efficacy in selectively inhibiting PI3Kδ can be assessed.

[3] = test system: phospho-AKT in 786-O cells (PI3Kβ); assay: PI3Kβ selective assay, phospho-AKT in 786-O cells; format: cell-based; conditions: Homo sapiens, 786-0; ranges between 1 μM and 10 μM and greater than 10 μM; read-out: IC50 for phospho-AKT, 786-O cell model
Excerpt: A compound's ability in selectively inhibiting PI3Kβ can be assessed using 786-O cells, i.e., human kidney carcinoma cell line. Briefly, 786-O cells, in which PI3Kβ is constitutively active, can be treated with test compounds. Test compounds' ability to inhibit AKT phosphorylation in 786-O cells, therefore, is indicative of selective inhibition of PI3β. Thus, by monitoring the reduction of phospho-AKT in 786-O cells (using for example, phospho-AKT antibodies), a compound's potential efficacy in selectively inhibiting PI3Kβ can be assessed.
Certain compounds provided herein (e.g., Compounds 5, 49, 138, 326, 328, 354, 359, 389, and 391) were tested in 786-O cell model using procedures as described above.

[4] = test system: phospho-AKT in SKOV-3 cells (PI3Kα); assay: PI3Kα selective assay, phospho-AKT in SKOV-3 cells; format: cell-based; conditions: Homo sapiens, SK-OV-3; ranges between 1 μM and 10 μM and greater than 10 μM; read-out: IC50 for phospho-AKT, SKOV-3 cell model
Excerpt: A compound's ability in selectively inhibiting PI3Kα can be assessed using SKOV-3 cells, i.e., human ovarian carcinoma cell line. Briefly, SKOV-3 cells, in which mutant PI3Kα is constitutively active, can be treated with test compounds. Test compounds' ability to inhibit AKT phosphorylation in SKOV-3 cells, therefore, is indicative of selective inhibition of PI3Kα. Thus, by monitoring the reduction of phospho-AKT in SKOV-3 cells (using for example, phospho-AKT antibodies), a compound's potential efficacy in selectively inhibiting PI3Kα can be assessed.
Certain compounds provided herein (e.g., Compounds 5, 49, 138, 326, 328, 354, 359, 389, and 391) were tested in SKOV-3 cell model using procedures as described above.

[5] = column bins 1 μM to 100 nM (given as 100-1000) and Less than 100 nM
[6] = bins Greater than 10 μM and Greater than 1 μM to 10 μM
[7] = ranges less than 100 nM and between 100 nM and 1 μM (given as 100-1000)

T2 sequence (P42338 whole entry): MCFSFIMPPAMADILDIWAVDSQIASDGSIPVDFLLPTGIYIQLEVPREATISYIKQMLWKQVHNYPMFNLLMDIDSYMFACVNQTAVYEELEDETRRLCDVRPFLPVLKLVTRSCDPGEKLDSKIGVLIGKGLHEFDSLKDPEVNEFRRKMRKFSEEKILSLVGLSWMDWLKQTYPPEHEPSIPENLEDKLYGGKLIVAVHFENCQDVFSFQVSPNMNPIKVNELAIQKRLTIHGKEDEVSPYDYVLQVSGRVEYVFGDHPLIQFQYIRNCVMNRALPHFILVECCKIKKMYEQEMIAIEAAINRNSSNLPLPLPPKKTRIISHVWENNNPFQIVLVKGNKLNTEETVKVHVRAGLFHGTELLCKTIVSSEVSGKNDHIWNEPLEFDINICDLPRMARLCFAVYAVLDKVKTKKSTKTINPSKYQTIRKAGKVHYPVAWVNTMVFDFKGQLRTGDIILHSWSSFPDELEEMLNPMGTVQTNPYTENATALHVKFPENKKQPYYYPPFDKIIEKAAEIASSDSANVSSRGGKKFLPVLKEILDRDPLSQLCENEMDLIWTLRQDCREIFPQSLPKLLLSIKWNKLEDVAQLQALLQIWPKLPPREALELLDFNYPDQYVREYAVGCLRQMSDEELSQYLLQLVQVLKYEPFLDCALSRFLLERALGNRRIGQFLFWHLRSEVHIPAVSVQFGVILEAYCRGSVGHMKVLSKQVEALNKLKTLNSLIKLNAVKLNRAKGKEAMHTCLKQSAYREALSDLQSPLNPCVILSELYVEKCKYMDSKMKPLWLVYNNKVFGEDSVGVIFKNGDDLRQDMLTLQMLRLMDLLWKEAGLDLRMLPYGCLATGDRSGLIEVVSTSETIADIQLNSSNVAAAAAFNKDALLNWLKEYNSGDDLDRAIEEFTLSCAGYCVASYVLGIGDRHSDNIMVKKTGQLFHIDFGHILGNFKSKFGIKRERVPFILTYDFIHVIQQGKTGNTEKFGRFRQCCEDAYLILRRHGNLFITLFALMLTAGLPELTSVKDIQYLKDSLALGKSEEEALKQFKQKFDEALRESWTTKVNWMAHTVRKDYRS
T2 sequence (P27986 whole entry partner): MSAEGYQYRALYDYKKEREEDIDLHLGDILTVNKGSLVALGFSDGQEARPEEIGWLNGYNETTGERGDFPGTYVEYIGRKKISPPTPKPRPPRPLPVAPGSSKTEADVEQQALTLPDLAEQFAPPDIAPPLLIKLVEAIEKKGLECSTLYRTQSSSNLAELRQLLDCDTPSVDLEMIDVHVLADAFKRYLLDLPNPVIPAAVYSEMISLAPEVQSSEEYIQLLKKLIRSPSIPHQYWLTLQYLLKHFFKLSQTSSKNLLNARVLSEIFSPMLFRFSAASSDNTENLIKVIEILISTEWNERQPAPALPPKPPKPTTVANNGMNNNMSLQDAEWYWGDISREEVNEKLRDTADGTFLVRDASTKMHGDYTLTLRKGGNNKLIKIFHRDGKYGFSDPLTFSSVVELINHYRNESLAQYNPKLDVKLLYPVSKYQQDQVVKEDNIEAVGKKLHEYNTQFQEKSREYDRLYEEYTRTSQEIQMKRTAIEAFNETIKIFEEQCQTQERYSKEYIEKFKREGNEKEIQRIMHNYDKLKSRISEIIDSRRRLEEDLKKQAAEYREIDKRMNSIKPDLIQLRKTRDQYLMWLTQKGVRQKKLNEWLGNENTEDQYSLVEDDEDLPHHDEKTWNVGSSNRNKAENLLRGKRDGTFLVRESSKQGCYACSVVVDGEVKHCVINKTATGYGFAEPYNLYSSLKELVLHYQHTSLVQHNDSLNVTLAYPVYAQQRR
T3 sequence (O00329 whole entry): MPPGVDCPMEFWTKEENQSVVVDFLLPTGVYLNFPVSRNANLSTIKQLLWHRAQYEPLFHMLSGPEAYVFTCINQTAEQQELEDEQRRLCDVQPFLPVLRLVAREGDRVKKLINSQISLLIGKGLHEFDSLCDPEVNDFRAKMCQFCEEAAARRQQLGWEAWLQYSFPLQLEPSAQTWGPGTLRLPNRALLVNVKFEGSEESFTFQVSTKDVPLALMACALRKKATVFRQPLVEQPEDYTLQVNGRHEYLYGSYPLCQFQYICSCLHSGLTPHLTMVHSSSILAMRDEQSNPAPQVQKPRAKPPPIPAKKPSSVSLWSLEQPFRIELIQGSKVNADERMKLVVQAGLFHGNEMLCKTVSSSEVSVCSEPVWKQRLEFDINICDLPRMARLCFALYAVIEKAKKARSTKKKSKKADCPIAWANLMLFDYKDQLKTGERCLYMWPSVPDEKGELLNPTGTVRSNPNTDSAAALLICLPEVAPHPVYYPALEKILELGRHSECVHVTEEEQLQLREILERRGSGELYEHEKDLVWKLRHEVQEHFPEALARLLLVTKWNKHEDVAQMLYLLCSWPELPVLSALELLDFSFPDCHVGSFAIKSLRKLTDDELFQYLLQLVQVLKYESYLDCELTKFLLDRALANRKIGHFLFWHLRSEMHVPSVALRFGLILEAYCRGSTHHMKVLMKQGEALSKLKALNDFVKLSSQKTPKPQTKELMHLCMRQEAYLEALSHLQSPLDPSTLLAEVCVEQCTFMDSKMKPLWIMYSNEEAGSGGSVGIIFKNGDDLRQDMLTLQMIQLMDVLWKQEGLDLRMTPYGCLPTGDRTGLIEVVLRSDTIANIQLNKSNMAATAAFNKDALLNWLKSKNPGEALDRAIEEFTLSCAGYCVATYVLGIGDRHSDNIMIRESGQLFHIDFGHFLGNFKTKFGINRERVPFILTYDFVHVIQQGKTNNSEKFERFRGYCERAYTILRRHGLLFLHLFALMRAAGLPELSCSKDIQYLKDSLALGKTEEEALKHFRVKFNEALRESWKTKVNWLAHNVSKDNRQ
T3 sequence (P27986 whole entry partner): as the sequence (P27986 whole entry partner) above
T1 sequence (P48736 whole entry): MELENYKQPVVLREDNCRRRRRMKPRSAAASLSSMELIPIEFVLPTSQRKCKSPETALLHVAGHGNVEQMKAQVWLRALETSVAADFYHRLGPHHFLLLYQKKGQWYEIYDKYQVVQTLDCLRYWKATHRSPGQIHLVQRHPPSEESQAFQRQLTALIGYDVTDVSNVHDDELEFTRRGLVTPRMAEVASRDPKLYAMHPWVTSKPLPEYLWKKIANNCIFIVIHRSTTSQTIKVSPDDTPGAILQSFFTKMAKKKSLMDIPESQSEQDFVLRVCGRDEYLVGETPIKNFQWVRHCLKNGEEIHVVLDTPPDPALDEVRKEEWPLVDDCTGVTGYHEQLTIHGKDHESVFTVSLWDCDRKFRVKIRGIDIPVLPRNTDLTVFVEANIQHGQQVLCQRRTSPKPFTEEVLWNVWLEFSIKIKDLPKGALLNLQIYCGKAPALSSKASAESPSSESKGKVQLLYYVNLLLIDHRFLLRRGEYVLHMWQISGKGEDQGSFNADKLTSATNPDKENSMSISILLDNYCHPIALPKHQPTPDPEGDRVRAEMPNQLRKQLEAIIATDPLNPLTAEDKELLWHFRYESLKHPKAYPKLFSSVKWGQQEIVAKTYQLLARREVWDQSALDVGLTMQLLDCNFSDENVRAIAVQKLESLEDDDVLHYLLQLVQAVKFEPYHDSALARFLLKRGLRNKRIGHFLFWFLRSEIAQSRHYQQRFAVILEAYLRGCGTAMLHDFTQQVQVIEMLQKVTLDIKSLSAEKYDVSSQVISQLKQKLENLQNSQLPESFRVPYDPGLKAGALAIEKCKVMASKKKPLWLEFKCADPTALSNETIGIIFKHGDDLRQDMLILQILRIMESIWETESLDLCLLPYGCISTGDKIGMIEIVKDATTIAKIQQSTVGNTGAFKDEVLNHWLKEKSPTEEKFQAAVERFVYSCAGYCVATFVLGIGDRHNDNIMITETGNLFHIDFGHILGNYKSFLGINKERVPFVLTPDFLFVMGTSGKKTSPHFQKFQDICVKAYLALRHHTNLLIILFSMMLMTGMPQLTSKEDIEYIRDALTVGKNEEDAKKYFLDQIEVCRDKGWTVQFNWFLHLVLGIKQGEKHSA
T4 sequence (P42336 whole entry): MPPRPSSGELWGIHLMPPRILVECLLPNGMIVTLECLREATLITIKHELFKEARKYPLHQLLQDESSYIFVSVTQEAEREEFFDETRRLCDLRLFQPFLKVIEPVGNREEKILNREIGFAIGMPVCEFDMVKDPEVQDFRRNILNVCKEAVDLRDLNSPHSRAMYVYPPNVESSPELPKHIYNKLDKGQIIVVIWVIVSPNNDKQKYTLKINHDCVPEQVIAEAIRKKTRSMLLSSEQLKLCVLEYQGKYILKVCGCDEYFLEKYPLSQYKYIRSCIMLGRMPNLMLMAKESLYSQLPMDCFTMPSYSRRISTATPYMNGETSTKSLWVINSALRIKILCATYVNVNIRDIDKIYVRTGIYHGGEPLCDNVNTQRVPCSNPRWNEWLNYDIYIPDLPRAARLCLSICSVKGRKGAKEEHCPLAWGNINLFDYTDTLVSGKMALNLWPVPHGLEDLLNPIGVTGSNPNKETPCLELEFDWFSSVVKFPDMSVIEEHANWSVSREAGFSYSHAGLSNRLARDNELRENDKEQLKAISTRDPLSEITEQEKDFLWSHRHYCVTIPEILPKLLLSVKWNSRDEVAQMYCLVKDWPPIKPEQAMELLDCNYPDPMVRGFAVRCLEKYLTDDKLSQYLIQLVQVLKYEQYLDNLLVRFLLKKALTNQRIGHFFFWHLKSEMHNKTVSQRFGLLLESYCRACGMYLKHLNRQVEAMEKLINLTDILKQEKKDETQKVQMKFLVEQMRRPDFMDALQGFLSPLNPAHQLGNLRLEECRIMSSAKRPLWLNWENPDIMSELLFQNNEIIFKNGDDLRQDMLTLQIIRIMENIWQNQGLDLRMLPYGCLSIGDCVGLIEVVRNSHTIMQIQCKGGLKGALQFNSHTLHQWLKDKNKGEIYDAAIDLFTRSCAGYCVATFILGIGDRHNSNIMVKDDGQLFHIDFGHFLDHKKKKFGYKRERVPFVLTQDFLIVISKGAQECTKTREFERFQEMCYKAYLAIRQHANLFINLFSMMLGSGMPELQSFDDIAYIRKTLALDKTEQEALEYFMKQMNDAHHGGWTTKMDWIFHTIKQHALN
T4 sequence (P27986 whole entry partner): as the sequence (P27986 whole entry partner) above

Row | Compound | IC50 (PI3Kγ; [6]) [nM] | IC50 (PI3Kδ; [6]) [nM] | IC50 [2] [nM] | other results
1 | CCc1ncc(-c2cccc3nc([C@H](C)Nc4nc(N)ncc4C#N)n(-c4ccccc4)c(=O)c23)cn1 [Compound 60] |  |  |  | IC50 (PI3Kγ; [5]): < 100 nM; IC50 (PI3Kβ): > 10000 nM; IC50 (PI3Kδ; [5]): < 100 nM; EC50 (Balb/c splenic B cells; [5]): < 100 nM; IC50 (PI3Kα; [6]): > 10000 nM
2 | C[C@H](Nc1nc(Cl)ncc1[N+](=O)[O-])c1cc2cccc(Cl)c2c(=O)n1-c1ccccc1 [Compound 75, (S)-8-chloro-3-(1-(2-chloro-5-nitropyrimidin-4-ylamino)ethyl)-2-phenylisoquinolin-1(2H)-one] | 1000 to 10000 |  |  | 
3 | C[C@H](Nc1cc(Cl)ncn1)c1cc2cccc(Cl)c2c(=O)n1-c1ccccc1 [Compound 77, (S)-8-chloro-3-(1-(6-chloropyrimidin-4-ylamino)ethyl)-2-phenylisoquinolin-1(2H)-one] | 1000 to 10000 | 1000 to 10000 |  | 
4 | C[C@H](Nc1cc(N)ncn1)c1cc2cccc(Cl)c2c(=O)n1-c1ccccc1 [Compound 78, (S)-3-(1-(6-aminopyrimidin-4-ylamino)ethyl)-8-chloro-2-phenylisoquinolin-1(2H)-one] | 1000 to 10000 |  |  | 
5 | COc1cc(-c2cccc3cc([C@H](C)Nc4nc(N)ncc4C(=O)N(C)CCO)n(-c4ccccc4)c(=O)c23)ccn1 [Compound 114] | 1000 to 10000 | 1000 to 10000 |  | 
6 | CCOc1cncc(-c2cccc3cc([C@H](C)Nc4nc(N)ncc4C#N)n(-c4ccccc4)c(=O)c23)c1 [Compound 115] |  |  |  | IC50 (PI3Kγ; [5]): < 100 nM; IC50 (PI3Kβ): 1000 to 10000 nM; IC50 (PI3Kδ; [5]): < 100 nM; EC50 (Balb/c splenic B cells; [5]): < 100 nM; IC50 (PI3Kα; [5]): 100 to 1000 nM
7 | COc1cc(-c2cccc3cc([C@H](C)Nc4nc(N)ncc4C(=O)N4CCOCC4)n(-c4ccccc4)c(=O)c23)ccn1 [Compound 119] | 1000 to 10000 | 1000 to 10000 |  | 
8 | C[C@H](Nc1nc(N)ncc1C#N)c1cc2cccc(-c3cccc(N(C)S(C)(=O)=O)c3)c2c(=O)n1-c1ccccc1 [Compound 153] |  |  |  | IC50 (PI3Kγ; [5]): < 100 nM; IC50 (PI3Kβ): 1000 to 10000 nM; IC50 (PI3Kδ; [5]): < 100 nM; EC50 (Balb/c splenic B cells; [5]): < 100 nM; IC50 (PI3Kα; [5]): 100 to 1000 nM
9 | CC(=O)Nc1cnc(N)nc1N[C@@H](C)c1cc2cccc(Cl)c2c(=O)n1-c1ccccc1 [Compound 173] | 1000 to 10000 |  |  | 
10 | C[C@H](Nc1nc(N)ncc1NC(=O)c1ccccc1)c1cc2cccc(Cl)c2c(=O)n1-c1ccccc1 [Compound 175] | 1000 to 10000 | 1000 to 10000 |  | 
11 | C[C@H](Nc1nc(N)ncc1C#N)c1cc2cccc(-c3ccn(C)c(=O)c3)c2c(=O)n1-c1ccccc1 [Compound 182] | 1000 to 10000 | 1000 to 10000 |  | 
12 | COc1cc(N[C@@H](C)c2cc3cccc(Cl)c3c(=O)n2-c2ccccc2)nc(N)n1 [Compound 211] | 1000 to 10000 | 1000 to 10000 |  | EC50 (Balb/c splenic B cells; Greater than 1 μM to 10 μM): 1000 to 10000 nM
13 | COC(=O)c1cccc(-n2c([C@H](C)Nc3nc(N)ncc3C#N)cc3cccc(Cl)c3c2=O)c1 [Compound 316] | 1000 to 10000 |  | < 100 | IC50 [1, 7]: < 100 nM; IC50 (PI3Kα; [6]): 1000 to 10000 nM
14 | COc1ncc(-c2cccc3cc([C@H](C)Nc4nc(N)ncc4C#N)n(-c4ccon4)c(=O)c23)cn1 [Compound 333] | 1000 to 10000 |  | < 100 | IC50 ([1]; range between 1 μM and 10 μM): 1000 to 10000 nM
15 | Cc1ncc(-c2cccc3cc([C@H](C)Nc4nc(N)ncc4C#N)n(-c4ccon4)c(=O)c23)cn1 [Compound 334] | 1000 to 10000 |  | < 100 | IC50 ([1]; range between 1 μM and 10 μM): 1000 to 10000 nM
16 | COc1ncc(-c2cccc3cc([C@H](C)Nc4ncnc(N)c4C#N)n(-c4ccon4)c(=O)c23)cn1 [Compound 337] | 1000 to 10000 |  | < 100 | IC50 ([1]; range between 1 μM and 10 μM): 1000 to 10000 nM; IC50 (PI3Kα; [6]): 1000 to 10000 nM
17 | C[C@H](Nc1ncnc(N)c1C#N)c1cc2cccc(Cl)c2c(C(=O)NC2CCOCC2)n1 [Compound 353] | 1000 to 10000 |  | < 100 | IC50 ([1]; range between 1 μM and 10 μM): 1000 to 10000 nM
18 | COc1nc(-c2cnc(N)nc2N[C@@H](C)c2cc3cccc(-c4ccc(=O)n(C)c4)c3c(=O)n2-c2ccccc2)cs1 [Compound 391] |  |  | < 100 | IC50 [1, 7]: 100 to 1000 nM; IC50 [3]: > 10000 nM; IC50 [4]: > 10000 nM
19 | C[C@H](Nc1nc(N)ncc1C(=O)C1CC1)c1cc2cccc(Cl)c2c(=O)n1-c1ccccc1 [Compound 425] | 1000 to 10000 | 1000 to 10000 | < 100 | IC50 [1, 7]: 100 to 1000 nM; IC50 (PI3Kα; [6]): 1000 to 10000 nM
20 | C[C@H](Nc1nc(N)ncc1C(=O)N1CC(F)(F)C1)c1cc2cccc(Cl)c2c(=O)n1-c1ccccc1 [Compound 434] | 1000 to 10000 | 1000 to 10000 |  | 
21 | COc1cc(-c2cccc3cc([C@H](C)Nc4nc(N)ncc4C(=O)NC4CC4)n(-c4ccccc4)c(=O)c23)ccn1 [Compound 441] | 1000 to 10000 | 1000 to 10000 |  | EC50 (Balb/c splenic B cells; Greater than 1 μM to 10 μM): 1000 to 10000 nM
